Drug recovery data for 4 compounds are collected here from ChEMBL document CHEMBL3046081, “Phytotoxic effect, uptake, and transformation of biochanin A in selected weed species” (J Agric Food Chem, 2012).

Data set [1] relates to Leaf. The experiment in a line: Drug recovery in leaf of Secale cereale (rye) at 50 ng/g by LC-MS analysis.
Data set [2] has as its system Leaf. Briefly: Drug recovery in leaf of Secale cereale (rye) at 5 ng/g by LC-MS analysis.

`O=C(O)/C=C/c1ccc(O)cc1` [COUMARIC ACID]: the Drug recovery came to 81% in the data set with Leaf [1] and 79% with Leaf [2]. `COc1ccc(C2COc3cc(O)cc(O)c3C2=O)cc1` (configuration not stated) [DIHYDROBIOCHANIN A]: the Drug recovery is 76% in the data set on Leaf [1] and 104% in the data set with Leaf [2]. Regarding `O=c1c(-c2ccc(O)cc2)coc2cc(O)cc(O)c12` [GENISTEIN], the Drug recovery in the data set on Leaf [1] is reported as 65%; with Leaf [2], 81%.

`COc1ccc(-c2coc3cc(O)cc(O)c3c2=O)cc1O` [PRATENSEIN] registered a Drug recovery with Leaf [2] of 98%.
